Results: ChEMBL document CHEMBL1131775, “The synthesis of water soluble prodrugs analogs of echinocandin B” (1999)
Values after ≈ are worked out from the molar mass of the structure shown. Starred links: 1 amine or outer side, 2 acyl side, 3 side chain; linkers in the order of their positions; H or OH if unused. Positions of bridges follow the written chain, without caps; N, C: chain ends. Non-standard residues stand in square brackets, D forms with d. Residues, ends and D or L forms follow the SMILES beside them. *: point of attachment. pTerphenylCO(4''-OnC5H11) = CCCCCOc1ccc(-c2ccc(-c3ccc(C(=O)*)cc3)cc2)cc1; Orn(4R-OH,5R-OH) = O=C([C@H](C[C@@H](O)[C@@H](O)N[*:3])N[*:1])[*:2]; hTyr(3S-OH,4S-OH) = N[C@H](C(=O)O)[C@H](O)[C@@H](O)c1ccc(O)cc1; X1 = COP(=O)(O)Oc1ccc(C[C@@H](O)[C@H](N[*:1])C(=O)[*:2])cc1; Orn(4R-OH) = O=C([C@H](C[C@@H](O)CN[*:3])N[*:1])[*:2]; Pro(3S-OH,4S-Me) = C[C@H]1CN[C@H](C(=O)O)[C@H]1O; Hyp = O=C(O)[C@@H]1C[C@@H](O)CN1

Columns and labels:
[1] = system: Candida albicans; assay: In vitro antifungal activity against candida albicans after intraperitoneal administration of the compound; type: functional; settings: ip
[2] = system: Candida albicans; assay: In vitro antifungal activity against candida albicans; type: functional

| SMILES | ED50 [1] [mg/kg] | MIC [2] [µg/mL] |
| --- | --- | --- |
| CCCCCOc1ccc(-c2ccc(-c3ccc(C(=O)N[C@H]4C[C@@H](O)CNC(=O)[C@@H]5[C@@H](O)[C@@H](C)CN5C(=O)[C@H]([C@@H](C)O)NC(=O)[C@H]([C@H](O)Cc5ccc(OP(=O)(O)OC)cc5)NC(=O)[C@@H]5C[C@@H](O)CN5C(=O)[C@H]([C@@H](C)O)NC4=O)cc3)cc2)cc1 ({pTerphenylCO(4''-OnC5H11)}-[Orn(4R-OH)]T[Hyp][X1]T[Pro(3S-OH,4S-Me)]; lactam 1-C) | 0.47 | 0.312 (≈ 0.26 µM) |
| CCCCCOc1ccc(-c2ccc(-c3ccc(C(=O)N[C@H]4C[C@@H](O)[C@@H](O)NC(=O)[C@@H]5[C@@H](O)[C@@H](C)CN5C(=O)[C@H]([C@@H](C)O)NC(=O)[C@H]([C@H](O)[C@@H](O)c5ccc(O)cc5)NC(=O)[C@@H]5C[C@@H](O)CN5C(=O)[C@H]([C@@H](C)O)NC4=O)cc3)cc2)cc1 [ANIDULAFUNGIN] ({pTerphenylCO(4''-OnC5H11)}-[Orn(4R-OH,5R-OH)]T[Hyp][hTyr(3S-OH,4S-OH)]T[Pro(3S-OH,4S-Me)]; lactam 1-C) | 0.32 | 0.01 (≈ 0.00877 µM) |
